Test results from the supplement of paper PMC10307832.

What was measured:
Experiment in all cases: relative viability (nuclei count vs DMSO), 5 days (fraction); higher = more cells survive
NCI-H2087 = tested on: NCI-H2087
Outline: (§1)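 Relative viability is defined as nuclei in treated wells over nuclei in vehicle wells. Duplicate plates were run and medians reported. Lung cancer cell lines in 1536-well plates were dosed by pin tool one day after seeding, with one drug or with a fixed anchor-drug dose plus five library-drug doses (not always all listed) in √10 steps, and nuclei were counted after 5 days.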

RERF-LC-KJ = tested on: RERF-LC-KJ
Outline: as §1

NCI-H520 = tested on: NCI-H520
Outline: as §1

NCI-H2126 = tested on: NCI-H2126
Outline: as §1

H3255 = tested on: H3255
Outline: as §1

NCI-H650 = tested on: NCI-H650
Outline: as §1

NCI-H661 = tested on: NCI-H661
Outline: as §1

LC-2-ad = tested on: LC-2-ad
Outline: as §1

EPLC-272H = tested on: EPLC-272H
Outline: as §1

NCI-H23 = tested on: NCI-H23
Outline: as §1

HCC-78 = tested on: HCC-78
Outline: as §1

NCI-H1915 = tested on: NCI-H1915
Outline: as §1

NCI-H2405 = tested on: NCI-H2405
Outline: as §1

HCC-827 = tested on: HCC-827
Outline: as §1

201T = tested on: 201T
Outline: as §1

COR-L 105 = tested on: COR-L 105
Outline: as §1

NCI-H1666 = tested on: NCI-H1666
Outline: as §1

PC-14 = tested on: PC-14
Outline: as §1

NCI-H647 = tested on: NCI-H647
Outline: as §1

ChaGo-K-1 = tested on: ChaGo-K-1
Outline: as §1

NCI-H2347 = tested on: NCI-H2347
Outline: as §1

LCLC-97TM1 = tested on: LCLC-97TM1
Outline: as §1

Question: What does the source list for `O=c1cc(N2CCOCC2)oc2c(-c3cccc4c3sc3ccccc34)cccc12` + N=C(N)NC(=N)NCCc1ccccc1 [Phenformin] (partner 250 µM)?
Answer: relative viability (NCI-H2087; first compound 0.01 µM): 0.423; relative viability (NCI-H2087; first compound 0.03162 µM): 0.535; relative viability (NCI-H2087; first compound 0.1 µM): 0.45; relative viability (NCI-H2087; first compound 0.3162 µM): 0.46; relative viability (NCI-H2087; first compound 1 µM): 0.431; relative viability (RERF-LC-KJ; first compound 0.01 µM): 0.429; relative viability (RERF-LC-KJ; first compound 0.03162 µM): 0.413; relative viability (RERF-LC-KJ; first compound 0.1 µM): 0.412; relative viability (RERF-LC-KJ; first compound 0.3162 µM): 0.418; relative viability (RERF-LC-KJ; first compound 1 µM): 0.427; relative viability (NCI-H520; first compound 0.01 µM): 0.663; relative viability (NCI-H520; first compound 0.03162 µM): 0.555; relative viability (NCI-H520; first compound 0.1 µM): 0.547; relative viability (NCI-H520; first compound 0.3162 µM): 0.672; relative viability (NCI-H520; first compound 1 µM): 0.644; relative viability (NCI-H2126; first compound 0.01 µM): 0.513; relative viability (NCI-H2126; first compound 0.03162 µM): 0.547; relative viability (NCI-H2126; first compound 0.1 µM): 0.53; relative viability (NCI-H2126; first compound 0.3162 µM): 0.554; relative viability (NCI-H2126; first compound 1 µM): 0.515; relative viability (H3255; first compound 0.01 µM): 0.388; relative viability (H3255; first compound 0.03162 µM): 0.334; relative viability (H3255; first compound 0.1 µM): 0.328; relative viability (H3255; first compound 0.3162 µM): 0.368; relative viability (H3255; first compound 1 µM): 0.35; relative viability (NCI-H650; first compound 0.03162 µM): 0.484; relative viability (NCI-H650; first compound 0.1 µM): 0.302; relative viability (NCI-H650; first compound 0.3162 µM): 0.511; relative viability (NCI-H650; first compound 1 µM): 0.413; relative viability (NCI-H661; first compound 0.01 µM): 0.291; relative viability (NCI-H661; first compound 0.03162 µM): 0.278; relative viability (NCI-H661; first compound 0.1 µM): 0.28; relative viability (NCI-H661; first compound 0.3162 µM): 0.269; relative viability (NCI-H661; first compound 1 µM): 0.285; relative viability (LC-2-ad; first compound 0.01 µM): 0.624; relative viability (LC-2-ad; first compound 0.03162 µM): 0.592; relative viability (LC-2-ad; first compound 0.1 µM): 0.614; relative viability (LC-2-ad; first compound 0.3162 µM): 0.547; relative viability (LC-2-ad; first compound 1 µM): 0.534; relative viability (EPLC-272H; first compound 0.01 µM): 0.394; relative viability (EPLC-272H; first compound 0.03162 µM): 0.316; relative viability (EPLC-272H; first compound 0.3162 µM): 0.286; relative viability (EPLC-272H; first compound 1 µM): 0.298; relative viability (NCI-H23; first compound 0.01 µM): 0.83; relative viability (NCI-H23; first compound 0.03162 µM): 0.801; relative viability (NCI-H23; first compound 0.3162 µM): 0.792; relative viability (NCI-H23; first compound 1 µM): 0.806; relative viability (HCC-78; first compound 0.01 µM): 0.738; relative viability (HCC-78; first compound 0.03162 µM): 0.652; relative viability (HCC-78; first compound 0.1 µM): 0.388; relative viability (HCC-78; first compound 0.3162 µM): 0.622; relative viability (HCC-78; first compound 1 µM): 0.627; relative viability (NCI-H1915; first compound 0.01 µM): 0.381; relative viability (NCI-H1915; first compound 0.03162 µM): 0.387; relative viability (NCI-H1915; first compound 0.1 µM): 0.371; relative viability (NCI-H1915; first compound 0.3162 µM): 0.386; relative viability (NCI-H1915; first compound 1 µM): 0.369; relative viability (NCI-H2405; first compound 0.01 µM): 0.364; relative viability (NCI-H2405; first compound 0.03162 µM): 0.38; relative viability (NCI-H2405; first compound 0.1 µM): 0.356; relative viability (NCI-H2405; first compound 0.3162 µM): 0.424; relative viability (NCI-H2405; first compound 1 µM): 0.404; relative viability (HCC-827; first compound 0.01 µM): 0.368; relative viability (HCC-827; first compound 0.03162 µM): 0.391; relative viability (HCC-827; first compound 0.1 µM): 0.396; relative viability (HCC-827; first compound 0.3162 µM): 0.405; relative viability (HCC-827; first compound 1 µM): 0.402; relative viability (201T; first compound 0.01 µM): 0.289; relative viability (201T; first compound 0.03162 µM): 0.488; relative viability (201T; first compound 0.1 µM): 0.469; relative viability (201T; first compound 0.3162 µM): 0.441; relative viability (201T; first compound 1 µM): 0.43; relative viability (COR-L 105; first compound 0.01 µM): 0.462; relative viability (COR-L 105; first compound 0.03162 µM): 0.497; relative viability (COR-L 105; first compound 0.1 µM): 0.607; relative viability (COR-L 105; first compound 0.3162 µM): 0.568; relative viability (COR-L 105; first compound 1 µM): 0.383; relative viability (NCI-H1666; first compound 0.01 µM): 0.566; relative viability (NCI-H1666; first compound 0.03162 µM): 0.607; relative viability (NCI-H1666; first compound 0.1 µM): 0.526; relative viability (NCI-H1666; first compound 0.3162 µM): 0.54; relative viability (NCI-H1666; first compound 1 µM): 0.584; relative viability (PC-14; first compound 0.01 µM): 0.292; relative viability (PC-14; first compound 0.03162 µM): 0.758; relative viability (PC-14; first compound 0.1 µM): 0.428; relative viability (PC-14; first compound 0.3162 µM): 0.902; relative viability (PC-14; first compound 1 µM): 0.361; relative viability (NCI-H647; first compound 0.01 µM): 0.547; relative viability (NCI-H647; first compound 0.03162 µM): 0.643; relative viability (NCI-H647; first compound 0.1 µM): 0.319; relative viability (NCI-H647; first compound 0.3162 µM): 0.526; relative viability (NCI-H647; first compound 1 µM): 0.715; relative viability (ChaGo-K-1; first compound 0.01 µM): 0.401; relative viability (ChaGo-K-1; first compound 0.03162 µM): 0.579; relative viability (ChaGo-K-1; first compound 0.1 µM): 0.386; relative viability (ChaGo-K-1; first compound 0.3162 µM): 0.547; relative viability (ChaGo-K-1; first compound 1 µM): 0.468; relative viability (NCI-H2347; first compound 0.01 µM): 0.545; relative viability (NCI-H2347; first compound 0.03162 µM): 0.318; relative viability (NCI-H2347; first compound 0.1 µM): 0.376; relative viability (NCI-H2347; first compound 0.3162 µM): 0.419; relative viability (NCI-H2347; first compound 1 µM): 0.317; relative viability (LCLC-97TM1; first compound 0.01 µM): 0.43; relative viability (LCLC-97TM1; first compound 0.03162 µM): 0.458; relative viability (LCLC-97TM1; first compound 0.1 µM): 0.431; relative viability (LCLC-97TM1; first compound 0.3162 µM): 0.378; relative viability (LCLC-97TM1; first compound 1 µM): 0.449
